# Measured values as given in PubChem BioAssay AID1963847 (Molecular Pharmacology Branch, DTP, NCI, 2024).
# Tested on: 415267-285-R-J2-PDC complex spheroid viability
# Assay: Anticancer human tumor 415267-285-R-J2-PDC patient-derived breast carcinoma cell line growth inhibition [POLQ]
# Settings: for IC50: curve of first compound; for viability, T/C: stronger effect = lower value
# Protocol: Multicellular complex tumor spheroid response to Polymerase (POL) inhibitors (novobiocin, ART-558, RP6685) in combination with a variety of drugs and investigational agents in selected tumor cell lines
# The POL inhibitors (novobiocin, ART-558, and RP6685) were evaluated both individually and in combination with standard of care and investigational anticancer small molecules within a complex spheroid model of solid tumors. . Complex spheroids include a stromal component modeled by human endothelial cells (HUVEC) and fibroblasts modeled by human mesenchymal stem cells (MSCs). The concentration ranges selected for each drug and investigational agent were based upon clinically achievable concentrations if the clinical Cmax of the agent was known.
# Compounds. The drugs and investigational agents: novobiocin (NSC847541), ART-558 (NSC835418), RP-6685 (NSC848927), peposertib (NSC802822), ceralasertib (NSC780249), elimusertib (NSC800525), camonsertib (NSC841442), AZD-1390 (NSC803789), olaparib (NSC753686), talazoparib (NSC767125), rucaparib (NSC756644), sotorasib (NSC818433), MRTX-1133 (NSC836407), SN-38 (NSC673596), topotecan (NSC609699), epotoside (NSC141540), doxorubicin (NSC123127), gemcitabine (NSC613327), 5-fluorouracil (NSC19893), paclitaxel (NSC125973), vemurafenib (NSC761431), MSA-2 (NSC828583), SN-011 (NSC837082), adavosertib (NSC754352), prexasertib (NSC758257), carboplatin (NSC241240) and oxaliplatin (NSC266046), were obtained from the National Cancer Institute (NCI) Developmental Therapeutics Program Chemical Repository (21). The FDA-approved anticancer drug set is available from the Developmental Therapeutics Program at https://dtp.cancer.gov/organization/dscb/obtaining/. […] The stock solutions were prepared in dimethyl sulfoxide (DMSO, Sigma-Aldrich, St. Louis, MO, cat. D2650), except for the platinum compounds which were prepared in saline (Quality Biological, Gaithersburg, MD, cat. 114-055-101), at 800-fold the tested concentration and stored at -70 degrees C prior to their use. All drugs and investigational agents were tested over a range starting from a high concentration at or near the clinical Cmax and decreasing in half-log increments. If the clinical Cmax for an agent had not been determined, the highest concentration tested was 10 microM, except for SN-38, which was tested at a high concentration of 1 microM.
# Cell Culture. All cells were maintained in an incubator at 37 degrees C and 5% CO2 with 95% humidity. The PDC lines were cultured according to standard operating procedures established by the NCI PDMR (https://pdmr.cancer.gov). Table 3 of the manuscript, lists the cell lines along with the number of the three cell types plated to form the mct-spheroids and media for tumor cell growth. After thawing, all PDC lines, except 997537-175-T-J1-PDC and 415267-285-R-J2-PDC, were cultured in Matrigel-coated flasks prepared with a working solution of 1X Ham's F-12 nutrient mix, without supplementation (Thermo Fisher Scientific, cat. 11765054), 100 U/mL penicillin-streptomycin (Thermo Fisher Scientific, cat. 15140122), and 2.5% Matrigel (Corning Inc., Corning, NY, cat. 354248) for the first three passages. The two PDC lines 997537-175-T-J1-PDC and 415267-285-R-J2-PDC were cultured on uncoated flasks. The 857933-349-R-J2-PDC line was cultured in 6C/Colon 1B media containing advanced DMEM/F-12 (Thermo Fisher Scientific, cat. 12634028), 10 mM HEPES (Thermo Fisher Scientific, cat. 15630080), 1X GlutaMAX supplement (Thermo Fisher Scientific, cat. 35050061), 0.1 mg/mL primocin (InvivoGen, San Diego, CA, cat. ant-pm-2), 10% defined fetal bovine serum, heat inactivated (HyClone Laboratories Inc., Logan, UT, cat. SH30070.03HI), 50% L-WRN conditioned media (ATCC, cat. CRL-3276), 1.25 mM N-Acetyl-L-cysteine (Sigma-Aldrich, cat. A9165), 10 mM nicotinamide (Sigma-Aldrich, cat. N0636), 1X B-27 supplement (Thermo Fisher Scientific, cat. 17504044), 1X N-2 supplement (Thermo Fisher Scientific, cat. […]
# [1] = second compound 0.0316 µM, first compound 0.0316 µM
# [2] = second compound 0.0316 µM, first compound 0.1 µM
# [3] = second compound 0.1 µM, first compound 0.0316 µM
# [4] = second compound 0.1 µM, first compound 0.1 µM
# [5] = second compound 0.316 µM, first compound 0.0316 µM
# [6] = second compound 0.316 µM, first compound 0.1 µM
# [7] = second compound 1 µM, first compound 0.0316 µM
# [8] = second compound 1 µM, first compound 0.1 µM
# [9] = second compound 3.16 µM, first compound 0.0316 µM
# [10] = second compound 3.16 µM, first compound 0.1 µM
# [11] = second compound 10 µM, first compound 0.0316 µM
# [12] = second compound 10 µM, first compound 0.1 µM
# 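Note: spheroids exposed to compounds for one week before readout.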
# 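Throughout, for viability, T/C: luminescence used as stand-in measure of viable cells; 100% = DMSO vehicle control viability.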
smiles,measurement,setting,value
Cn1ncnc1[C@H]1c2n[nH]c(=O)c3cc(F)cc(c23)N[C@@H]1c1ccc(F)cc1 + COC1C(OC(N)=O)C(O)C(Oc2ccc3c(O)c(NC(=O)c4ccc(O)c(CC=C(C)C)c4)c(=O)oc3c2C)OC1(C)C,IC50,second compound 0.0316 µM,> 0.1 µM
same,IC50,second compound 0.1 µM,> 0.1 µM
same,IC50,second compound 0.316 µM,> 0.1 µM
same,IC50,second compound 1 µM,> 0.1 µM
same,IC50,second compound 3.16 µM,> 0.1 µM
same,IC50,second compound 10 µM,> 0.1 µM
same,"viability, T/C","second compound 0.0316 µM, first compound 0.000316 µM",102%
same,"viability, T/C","second compound 0.0316 µM, first compound 0.001 µM",98.6%
same,"viability, T/C","second compound 0.0316 µM, first compound 0.00316 µM",113%
same,"viability, T/C","second compound 0.0316 µM, first compound 0.01 µM",101%
same,"viability, T/C",[1],107%
same,"viability, T/C",[2],93%
same,"viability, T/C","second compound 0.1 µM, first compound 0.000316 µM",105%
same,"viability, T/C","second compound 0.1 µM, first compound 0.001 µM",99.3%
same,"viability, T/C","second compound 0.1 µM, first compound 0.00316 µM",101%
same,"viability, T/C","second compound 0.1 µM, first compound 0.01 µM",103%
same,"viability, T/C",[3],97.8%
same,"viability, T/C",[4],106%
same,"viability, T/C","second compound 0.316 µM, first compound 0.000316 µM",112%
same,"viability, T/C","second compound 0.316 µM, first compound 0.001 µM",99.6%
same,"viability, T/C","second compound 0.316 µM, first compound 0.00316 µM",94.2%
same,"viability, T/C","second compound 0.316 µM, first compound 0.01 µM",106%
same,"viability, T/C",[5],107%
same,"viability, T/C",[6],104%
same,"viability, T/C","second compound 1 µM, first compound 0.000316 µM",97.6%
same,"viability, T/C","second compound 1 µM, first compound 0.001 µM",93.3%
same,"viability, T/C","second compound 1 µM, first compound 0.00316 µM",94.8%
same,"viability, T/C","second compound 1 µM, first compound 0.01 µM",97.9%
same,"viability, T/C",[7],109%
same,"viability, T/C",[8],105%
same,"viability, T/C","second compound 3.16 µM, first compound 0.000316 µM",89.6%
same,"viability, T/C","second compound 3.16 µM, first compound 0.001 µM",92.9%
same,"viability, T/C","second compound 3.16 µM, first compound 0.00316 µM",95.4%
same,"viability, T/C","second compound 3.16 µM, first compound 0.01 µM",105%
same,"viability, T/C",[9],109%
same,"viability, T/C",[10],103%
same,"viability, T/C","second compound 10 µM, first compound 0.000316 µM",105%
same,"viability, T/C","second compound 10 µM, first compound 0.001 µM",101%
same,"viability, T/C","second compound 10 µM, first compound 0.00316 µM",101%
same,"viability, T/C","second compound 10 µM, first compound 0.01 µM",96.3%
same,"viability, T/C",[11],102%
same,"viability, T/C",[12],96.1%
O=C(c1cc(Cc2n[nH]c(=O)c3ccccc23)ccc1F)N1CCN(C(=O)C2CC2)CC1 + COC1C(OC(N)=O)C(O)C(Oc2ccc3c(O)c(NC(=O)c4ccc(O)c(CC=C(C)C)c4)c(=O)oc3c2C)OC1(C)C,IC50,second compound 0.0316 µM,> 10 µM
same,IC50,second compound 0.1 µM,> 10 µM
same,IC50,second compound 0.316 µM,> 10 µM
same,IC50,second compound 1 µM,> 10 µM
same,IC50,second compound 3.16 µM,> 10 µM
same,IC50,second compound 10 µM,> 10 µM
same,"viability, T/C",[1],88%
same,"viability, T/C",[2],92.7%
same,"viability, T/C","second compound 0.0316 µM, first compound 0.316 µM",89.4%
same,"viability, T/C","second compound 0.0316 µM, first compound 1 µM",94.3%
same,"viability, T/C","second compound 0.0316 µM, first compound 3.16 µM",96.5%
same,"viability, T/C","second compound 0.0316 µM, first compound 10 µM",81.8%
same,"viability, T/C",[3],95.5%
same,"viability, T/C",[4],94%
same,"viability, T/C","second compound 0.1 µM, first compound 0.316 µM",87%
same,"viability, T/C","second compound 0.1 µM, first compound 1 µM",92%
same,"viability, T/C","second compound 0.1 µM, first compound 3.16 µM",94.6%
same,"viability, T/C","second compound 0.1 µM, first compound 10 µM",79.6%
same,"viability, T/C",[5],93.5%
same,"viability, T/C",[6],102%
same,"viability, T/C","second compound 0.316 µM, first compound 0.316 µM",98.2%
same,"viability, T/C","second compound 0.316 µM, first compound 1 µM",96.6%
same,"viability, T/C","second compound 0.316 µM, first compound 3.16 µM",90.4%
same,"viability, T/C","second compound 0.316 µM, first compound 10 µM",95.1%
same,"viability, T/C",[7],98.5%
same,"viability, T/C",[8],101%
same,"viability, T/C","second compound 1 µM, first compound 0.316 µM",96.8%
same,"viability, T/C","second compound 1 µM, first compound 1 µM",90.9%
same,"viability, T/C","second compound 1 µM, first compound 3.16 µM",96%
same,"viability, T/C","second compound 1 µM, first compound 10 µM",77.9%
same,"viability, T/C",[9],97.2%
same,"viability, T/C",[10],91.9%
same,"viability, T/C","second compound 3.16 µM, first compound 0.316 µM",90.8%
same,"viability, T/C","second compound 3.16 µM, first compound 1 µM",94.8%
same,"viability, T/C","second compound 3.16 µM, first compound 3.16 µM",98.3%
same,"viability, T/C","second compound 3.16 µM, first compound 10 µM",81.4%
same,"viability, T/C",[11],97.6%
same,"viability, T/C",[12],105%
same,"viability, T/C","second compound 10 µM, first compound 0.316 µM",92%
same,"viability, T/C","second compound 10 µM, first compound 1 µM",93.2%
same,"viability, T/C","second compound 10 µM, first compound 3.16 µM",89.2%
same,"viability, T/C","second compound 10 µM, first compound 10 µM",79.7%
